IC50 data for 4 compounds are collected here from article PMC3014437 (Bioorganic & medicinal chemistry, 2010).

The experiment deals with LPS-induced iNOS-dependent NO production. The experiment is described as follows: LPS-induced NO production. The settings on record: Mus musculus, read-out: IC50 (µM) in NOS. In kind it is cell-based, murine.
As a reminder, the IC50 is the concentration needed to halve the response being measured. On to `CC(C)[C@@H](C)/C=C/[C@@H](C)[C@H]1CC[C@@H]2[C@]1(C)CC[C@H]1[C@]23C=C[C@]2(C[C@@H](O)CC[C@]12C)OO3` [Compound 37, ergosterol peroxide], for which the IC50 is 6.3 ± 1.8 µM. For the compound `C=C(C)C#Cc1c(C)c(OC)c(OC)c2c1OCO2` [Compound 2, Benzocamphorin B], the IC50 was 12.1 µM. As for `C=C(CC[C@@H](C)[C@H]1CC[C@H]2C3=C(C(=O)C[C@]12C)[C@@]1(C)CC[C@@H](O)[C@](C)(O)[C@@H]1C[C@@H]3O)C(C)C(=O)O` (stereo partly shown) [Compound 32, antcin K], the figure is greater than 50 µM; as for `COc1cc(C)c(OC)c2c1OCO2` [Compound 8, 4,7-dimethoxy-5-methyl-1,3-benzodioxole], 29.1 ± 4.4 µM.
